Test system: Human Jurkat T cell leukemia cells
Test: Analysis of apoptosis by Annexin V FITC / propidium iodide staining and flow cytometry
Assay type: cell-based
Conditions: for % apoptosis / Apoptosis (%): Jurkat T cells, oligonucleotides at final concentration of 53 μM; for Apoptosis (%): Table 1
Description: Human Jurkat T cell leukemia cells were obtained from the American Type Culture Collection (Rockville, Md.). The Jurkat T cells were maintained RPMI 1640 medium, supplemented with 10% heat-inactivated (56° C., 30 min) fetal bovine serum (all from Sigma Aldrich, Canada) in an atmosphere of 5% CO2 at 37° C. Cells were seeded at 2×10^5 cells/ml medium in 6-well float-bottomed tissue culture plates and incubated with oligonucleotides at a final concentration of 53 μM.
Apoptosis was measured by staining cells with Annexin V FITC and propidium iodide (PI) (BD Pharmingen, San Diego, Calif. USA) according to the manufacturer's instructions. Flow Cytometry (FCM) determined cellular fluorescence. The FCM and data analysis were carried out using a FACSCalibur instrument (excitation 488 nm, emission 530 nm for Annexin-V and 580 nm for PI) using the program CELLQuest.

| Sequence | % apoptosis (Table 3) [%] | Apoptosis (%) | further results |
| --- | --- | --- | --- |
| GGAAGG | 59 | – | – |
| CCGTCC | – | 5 | – |
| GGGTGG | 50 | – | apoptosis-inducing activity (phosphodiester versus phosphorothioate backbone): 50% |
| GGTTGG | 66 | – | – |
| GGGCGG | – | 17 | – |
| TGTGTG | 66 | – | – |
| CTGTCT | – | 14 | – |
| TCGTTC | – | 9.5 | – |
| AAGTAA | – | – | % apoptosis (Table 2): 23% |
| GGGAG | – | – | ACTUAL % OF CELLS IN APOPTOSIS (new sequences tested in vitro after prediction, Table 4): 73% |
| GGCCGG | – | – | % apoptosis (Table 2): 21% |
| GGGGGG | – | 4 | – |
| ATGTAT | – | – | % apoptosis (Table 2): 37% |
| TGGTTG | 69 | – | – |
| GTGTGT | 67 | – | – |
